Drawing on US20080015214A1 (priority 2005, published 2008), this text covers IC50 for five molecules.

What all share (experiment): biochemical
What all share (format): binding

The target in assay [1] is kappa (κ) opioid receptor (Homo sapiens, UniProt P41145). The note with it: 2C2 cell line membrane, U69593-H3 ligand.
In assay [2] the target is human nociceptin receptor (ORL-1) (Homo sapiens, UniProt P41146).
A further assay has as its target mu (μ) opioid receptor (Homo sapiens, UniProt P35372).

Chain of human nociceptin receptor (ORL-1) (P41146 whole entry): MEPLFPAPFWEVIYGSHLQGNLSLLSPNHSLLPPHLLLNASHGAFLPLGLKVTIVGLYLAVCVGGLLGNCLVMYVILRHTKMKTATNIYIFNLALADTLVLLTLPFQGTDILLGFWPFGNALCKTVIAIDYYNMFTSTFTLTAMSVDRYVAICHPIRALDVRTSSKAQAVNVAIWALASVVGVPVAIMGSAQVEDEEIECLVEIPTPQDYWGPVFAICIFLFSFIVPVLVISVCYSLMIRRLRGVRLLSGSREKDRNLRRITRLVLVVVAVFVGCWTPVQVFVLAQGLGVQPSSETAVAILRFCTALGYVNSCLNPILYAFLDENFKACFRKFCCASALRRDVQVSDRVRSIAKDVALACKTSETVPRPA
Chain of kappa (κ) opioid receptor (P41145 whole entry): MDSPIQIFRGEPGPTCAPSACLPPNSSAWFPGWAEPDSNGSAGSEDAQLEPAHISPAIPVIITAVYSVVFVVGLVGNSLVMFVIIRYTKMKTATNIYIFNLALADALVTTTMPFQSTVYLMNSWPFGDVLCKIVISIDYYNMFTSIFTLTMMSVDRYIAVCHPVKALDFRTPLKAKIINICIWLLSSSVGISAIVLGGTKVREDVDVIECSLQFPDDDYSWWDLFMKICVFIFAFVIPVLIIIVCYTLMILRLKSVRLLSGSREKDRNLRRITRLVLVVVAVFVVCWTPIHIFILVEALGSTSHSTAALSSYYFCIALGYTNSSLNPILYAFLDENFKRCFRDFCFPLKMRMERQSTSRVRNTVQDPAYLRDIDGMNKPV
Chain of mu (μ) opioid receptor (P35372 whole entry): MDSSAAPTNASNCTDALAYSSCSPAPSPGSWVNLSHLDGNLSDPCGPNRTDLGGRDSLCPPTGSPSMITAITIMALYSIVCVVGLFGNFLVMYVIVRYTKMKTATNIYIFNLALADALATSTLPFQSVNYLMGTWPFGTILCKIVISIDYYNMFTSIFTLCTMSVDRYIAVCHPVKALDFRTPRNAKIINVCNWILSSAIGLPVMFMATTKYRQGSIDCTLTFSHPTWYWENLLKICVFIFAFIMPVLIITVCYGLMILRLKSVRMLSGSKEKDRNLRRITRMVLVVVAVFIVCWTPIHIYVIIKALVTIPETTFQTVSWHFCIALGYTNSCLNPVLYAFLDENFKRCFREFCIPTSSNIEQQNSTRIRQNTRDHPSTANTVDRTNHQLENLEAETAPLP

What is called IC50 is the concentration that gives 50% inhibition. The molecule `OC1CN(C2Cc3cccc4cccc2c34)CCC1c1c[nH]c2ncccc12` (mixture of isomers) [Cpd 40, 1-acenaphthen-1-yl-4-(1 H-pyrrolo[2,3-b]pyridin-3-yl)-piperidin-3-ol] returned a concentration for half-maximal inhibition (IC50) in assay [1] of 4300 nM. Consider `c1ccc2c(CN3CCC(c4c[nH]c5ncccc45)CC3)cccc2c1` [Cpd 33, 3-(1-naphthalen-1-ylmethyl-piperidin-4-yl)-1H-pyrrolo[2,3-b]pyridine], for which the IC50 in assay [2] worked out at 821 nM; against mu (μ) opioid receptor, 345 nM. Molecule `c1cc2c3c(cccc3c1)C(N1CCC(c3cn(C4Cc5cccc6cccc4c56)c4ncccc34)CC1)C2` (stereo not drawn) [Cpd 35, 1-acenaphthen-1-yl-3-(1-acenaphthen-1-yl-piperidin-4-yl)-1H-pyrrolo[2,3-b]pyridine] came in with a 50% inhibitory concentration (IC50) in assay [1] of 840 nM. For `c1cnc2[nH]cc(C3CCN(CC4CCCCC4)CC3)c2c1` [Cpd 52, 3-(1-cyclohexylmethyl-piperidin-4-yl)-1H-pyrrolo [2,3-b]pyridine], half-maximal inhibition in assay [2] (IC50) required 3500 nM. This lies in the single-digit micromolar range. At mu (μ) opioid receptor, `c1ccc(Oc2ccc(CN3CCC(c4c[nH]c5ncccc45)CC3)cc2)cc1` [Cpd 55, 3-[1-(4-phenoxy-benzyl)-piperidin-4-yl]-1H-pyrrolo[2,3-b]pyridine] came in with an IC50 of 339 nM.
